Experimental data reported in publication PMC9871250, “Identification of an indole biodegradation gene cluster from Providencia rettgeri and its contribution in selectively biosynthesizing Tyrian purple” (Frontiers in Bioengineering and Biotechnology, 2023).

Molecular target: T1, GS-D (Providencia rettgeri, UniProt A0ACG1W3V9)
T1 construct: gene KAH49_07450; full length, N-terminal 6xHis, pET28a in E. coli BL21(DE3), Ni-NTA
T1 sequence (A0ACG1W3V9 1-176): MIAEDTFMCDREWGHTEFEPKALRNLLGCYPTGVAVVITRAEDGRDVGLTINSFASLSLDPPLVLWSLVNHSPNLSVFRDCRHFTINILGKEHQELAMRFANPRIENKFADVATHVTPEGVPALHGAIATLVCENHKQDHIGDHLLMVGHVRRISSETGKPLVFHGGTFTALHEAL
Assay: NADH oxidation, absorbance at […] nm
Type: biochemical
Conditions: pH 8.0, 30 °C, 250 μM NADH, 100 μM FAD

NC(=O)C1=CN([C@@H]2O[C@H](COP(=O)(O)OP(=O)(O)OC[C@H]3O[C@@H](n4cnc5c(N)ncnc54)[C@H](O)[C@@H]3O)[C@@H](O)[C@H]2O)C=CC1 [NADH]
NADH oxidation, absorbance at 340 nm: oxidation of NADH demonstrated the flavin reductase activity of the GS-D reductase
